Experimental data taken from patent publication US5070074A, “Hypoglycemic and growth-promoting polypeptides isolated from bacitracin” (Protor Co., priority 1990, dated 1991).

System: insulinase
Test: insulinase inhibitory activity (method of Duckworth et al.)
Type: biochemical
Conditions: peaks from CM-Sepharose fractionation of commercial bacitracin
Protocol: The desired fraction is believed to have a molecular weight of about 1400, approximately the same as bacitracin A or F. Their anti-insulinase and antibacterial activities can be assayed in conventional manner. For example, the insulinase inhibitory activity was measured according to the method of Duckworth, et al., Proc. Nat. Acad. Sci., 69, 3698-3702 (1972) and the anti-bacterial activity by the method of Patrick, et al., Antibiotics and Chemotherapy, 1, 133-137 (1951).
A 350 ml bed volume of CM-Sepharose in a packed column (2.8×56 cm) was equilibrated with 0.05M ammonium acetate, pH 4.5 One gram of commercial bacitracin dissolved in 50 ml of buffer was applied to the packed column. The material was eluted with […] of equilibrating buffer followed by 350 ml of 1M ammonium acetate pH 4.5 buffer. Five ml fractions were collected and absorbance measurements at 252, 280 and 290 nm were made. In addition, insulinase inhibitory activity measurements were made on each peak. […] The peaks were collected, lyophilized, weighed and dissolved in water at 5 mg/ml concentration for specific activity measurements. The material collected with the second buffer contained 5-10 % of the total weight of the applied material and 90 % of the total insulinase inhibitory capacity. The specific activity of this material was 10-12 times that of the starting commercial material.

| Substance | insulinase inhibitory activity | insulinase inhibitory activity (listed as bacitracin A) | insulinase inhibitory activity (listed as bacitracin F) |
| --- | --- | --- | --- |
| bacitracin A | negligible | substantially no |  |
| bacitracin F | negligible |  | substantially no |
